# Source: ChEMBL document CHEMBL4130435, “Acetylcholinesterase Inhibitory Alkaloids from the Whole Plants of Zephyranthes carinata” (J Nat Prod, 2017)
# Target: Acetylcholinesterase (Homo sapiens, UniProt P22303)
# Test: Inhibition of AChE (unknown origin)
# Acetylcholinesterase, sequence (P22303 whole entry): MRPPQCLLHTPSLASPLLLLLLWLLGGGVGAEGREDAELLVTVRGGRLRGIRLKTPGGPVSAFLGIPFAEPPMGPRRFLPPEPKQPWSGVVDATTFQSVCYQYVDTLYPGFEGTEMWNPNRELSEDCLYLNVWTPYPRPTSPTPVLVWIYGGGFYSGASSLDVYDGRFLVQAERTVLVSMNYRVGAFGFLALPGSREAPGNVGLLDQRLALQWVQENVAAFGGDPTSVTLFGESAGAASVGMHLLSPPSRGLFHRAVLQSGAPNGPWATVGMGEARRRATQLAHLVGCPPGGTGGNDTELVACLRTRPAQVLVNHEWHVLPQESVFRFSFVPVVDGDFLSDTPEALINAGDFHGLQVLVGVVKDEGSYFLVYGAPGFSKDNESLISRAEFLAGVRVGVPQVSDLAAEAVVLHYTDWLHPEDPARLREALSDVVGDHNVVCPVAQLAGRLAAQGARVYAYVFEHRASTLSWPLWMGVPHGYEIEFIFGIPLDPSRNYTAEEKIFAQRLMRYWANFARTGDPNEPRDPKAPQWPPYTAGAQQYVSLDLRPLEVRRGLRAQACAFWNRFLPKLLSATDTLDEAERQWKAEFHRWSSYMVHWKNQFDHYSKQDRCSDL
row,Compound,IC50
1,CO[C@@H]1C=C[C@@]23c4cc5c(cc4C(=O)N(C)[C@@H]2C(=O)N(C)[C@H]3C1)OCO5,> 200 µM
2,CN[C@H]1C[C@H](OC)C=C[C@@]12C(=O)N(CCC(C)C)Cc1cc3c(cc12)OCO3,> 200 µM
3,COc1cc2c(cc1O)[C@@H]1[C@H](O)[C@@H](OC)C=C3CCN(C2)[C@H]31,> 200 µM
4,CO[C@@H]1C=C[C@@]23c4cc5c(cc4C(=O)N(CCC(C)C)[C@@H]2C(=O)N(C)[C@H]3C1)OCO5,> 200 µM
5,COc1cc2c(cc1O)[C@@H]1[C@H](O)[C@@H](O)C=C3CCN(C2)[C@H]31 [PSEUDOLYCORINE],188 µM
6,COc1ccc2c3c1O[C@H]1C[C@@H](O)CC[C@@]31CCN(C)C2,20.1 µM
7,CO[C@@H]1C=C[C@@]23c4cc5c(cc4CN(C)[C@@H]2C(=O)N(C)[C@H]3C1)OCO5,> 200 µM
8,COc1ccc2c3c1O[C@H]1C[C@H](O)CC[C@@]31CCN(C)C2,57.9 µM
9,CO[C@@H]1C=C[C@@]23c4cc5c(cc4C[N@@+]([O-])(CCc4ccc(O)cc4)[C@@H]2C(=O)N(C)[C@H]3C1)OCO5,> 200 µM
10,CO[C@@H]1C=C[C@@]23c4cc5c(cc4CN(CCc4ccc(O)cc4)[C@@H]2C(=O)N(C)[C@H]3C1)OCO5,> 200 µM
11,O[C@H]1[C@H]2c3cc4c(cc3CN3CCC(=C[C@@H]1O)[C@H]23)OCO4 [LYCORINE],> 200 µM
12,COc1cc2c(cc1OC)[C@@H]1[C@H](O)[C@@H](OC)C=C3CC[N@+]([O-])(C2)[C@H]31,> 200 µM
13,COc1cc2c(cc1O)[C@@H]1[C@H](O)[C@@H](OC)C=C3CC[N@@+]([O-])(C2)[C@H]31,> 200 µM
14,CO[C@@H]1C=C[C@@]23c4cc5c(cc4C(=O)N(CCC(C)C)[C@@H]2CN(C)[C@@H]3C1)OCO5,> 200 µM
15,COc1ccc2c3c1O[C@H]1C[C@@H](O)C=C[C@@]31[C@H](O)C[N@@+](C)([O-])C2,> 200 µM
16,COc1cc2c3c(c1)c1cc(=O)c(OC)cc-1cn3CC2,35.6 µM
17,CO[C@@H]1C=C[C@@]23c4cc5c(cc4C[N@@+]([O-])(CCc4ccccc4)[C@@H]2C(=O)N(C)[C@H]3C1)OCO5,> 200 µM
18,CO[C@@H]1C=C[C@@]23c4cc5c(cc4CN(CCC(C)C)[C@]2(C(C)=O)C(=O)N(C)[C@H]3C1)OCO5,> 200 µM
19,COc1ccc2c3c1O[C@H]1C[C@@H](O)CC[C@@]31CC[N@@+](C)([O-])C2,> 200 µM
20,COc1cc2c(cc1OC)[C@@H]1[C@H](O)[C@@H](OC)C=C3CCN(C2)[C@H]31 [GALANTHINE],6.1 µM
21,CO[C@@H]1C=C[C@@]23c4cc5c(cc4CN(CCC(C)C)[C@@H]2C(=O)N(C)[C@H]3C1)OCO5,> 200 µM
22,CO[C@@H]1C=C[C@@]2(CN(CCC(C)C)Cc3cc4c(cc32)OCO4)[C@@H](N(C)C=O)C1,> 200 µM
23,CO[C@@H]1C=C[C@@]23c4cc5c(cc4CN(CCc4ccccc4)[C@@H]2C(=O)N(C)[C@H]3C1)OCO5,> 200 µM
24,CO[C@@H]1C=C[C@@]23c4cc5c(cc4C[N@@+]([O-])(CCO)[C@@H]2C(=O)N(C)[C@H]3C1)OCO5,126 µM
